Data from patent US20260274876A1, “3-PYRROLIDINE-INDOLE DIMERS AS SEROTONERGIC AGENTS USEFUL FOR THE TREATMENT OF DISORDERS RELATED THERETO” (MINDSET PHARMA INC., priority 2022, published 2026).
Where two headings read alike, the source gives them in different places.

Key:
[1] = Intestinal mucosal permeation using Caco-2 cell monolayers; settings: human; for Papp A→B at 2 h, 5 µM / Papp B→A at 2 h, 5 µM / efflux ratio at 2 h, 5 μM: Caco-2, pH 7.4
Description: Plate was returned to incubator.
Vortexed for 5 minutes. […] Incubated at 37° C. for 30 minutes.

human 5-HT2A receptor = human 5-HT2A receptor (Homo sapiens, UniProt P28223); assay: Human 5-HT2A functional FLIPR assay (agonist mode); format: cell-based; set-up: expressed in transfected cells; settings: for RFU@10 μM: FLIPR, h5-HT2A, curve fitting with activation (%) @ 10 mM with RFU (footnote)
Description: The potential excitatory effects of compounds targeting on human 5-hydroxytryptamine receptor 2A (5-HT2A) under agonist mode was assessed.
HTR2A&Gα15-HEK293 cells were cultured in DMEM medium containing 10% dialyzed FBS and 1×penicillin-streptomycin, 100 μg/mL Hygromycin B and 300 μg/mL G418. The cells were passaged about three times a week, maintained between ~30% to ~90% confluence.
• 1. The cell culture medium (DMEM medium containing 10% dialyzed FBS and 1×penicillin-streptomycin, 100 μg/mL Hygromycin B and 300 μg/mL G418), TrypLE™ Express and DPBS to R.T. was warmed in advance. • 2. For induction, 1 μg/ml tetracycline (final concentration) was added to cell culture medium and incubated for 48 hours prior to seeding cells into plate at 37° C., 5% (v/v) CO2. The cell culture medium was removed from flask. Cells were washed with DPBS. • 3. 2 mL TrypLE™ Express was added to the flask, mixed well by gentle shaking and cells were incubated at 37° C. for a few minutes. • 4. The cells were checked for morphological change under microscope, the digestion was stopped by adding 4 mL cell culture medium to the flask when most of cells turned to round. • 5. The cell suspension was transferred into a 15 mL centrifuge tube, and then centrifuged at 1,200 rpm for 5 minutes. • 6. The supernatant was removed. The cell pellet was resuspended with 2 mL cell culture medium. • 7. The cell density was counted using cell counter. Only cells with >85% viability were used for the assay. • 8. Cells were diluted to 6.67×10^5/mL with cell culture medium. • 9. 30 μL/well cell suspensions added into a 384-well cell plate (The cell density was 20,000 cells/well). • 10. The cell plate was incubated overnight at 37° C., 5% (v/v) CO2.
On the day of experiments, culture medium was removed from the cell plate.
10 μL of assay buffer (20 mM HEPES, in 1×HBSS, pH 7.4) was added to each well of the cell plate.
2×dye solution was prepared following the manual of the FLIPR® Calcium 6 Assay Kit: • i. The dye was diluted with assay buffer. • ii. Probenecid was added to the final concentration of 5 mM. • iii. Vortexed vigorously for 1-2 minutes. • 4. 10 μL of 2×dye solution was added to each well of the cell plate • 5. The cell plate was placed on plate shaker, followed by shaking at 600 rpm for 2 minutes. • 6. The plate was incubated at 37° C. for 2 hours followed by an additional 15-minute incubation at 25° C. 2.4 Prepare 3×compound • 1. Serotonin HCl was prepared to the concentration of 10 mM with DMSO. • 2. The test compounds were prepared to the concentration of 10 mM with DMSO. • 3. The compounds were added to a 384-well compound source plate. • 4. 3-folds serial dilutions were performed with DMSO. • 5. 90 nL/well of serial diluted compounds was transferred from source plate to a 384-well compound plate by using an Echo. • 6. 30 μL/well of assay buffer (20 mM HEPES in 1×HBSS, pH 7.4) was added to the compound plate. • 7. The plate was mixed on-plate shaker for 2 minutes.
• 1. After the cells were incubated with dye solution, the cell plate, compound plate containing 3×compounds and FLIPR tips were placed into FLIPR. • 2. 10 μL of 3×compounds transferred from the compound plate to the cell plate by FLIPR. • 3. The plate was read for 160 sec with 1 sec interval and the data of agonist mode was obtained.
• 1. The normalized fluorescence reading (RFU) was calculated as shown below, wherein Fmax and Fmin stand for maximum and minimum of calcium signal during defined time window:
[formula] • 2. EC50 by fitting RFU against log of compound concentrations with Hill equation was calculated using XLfit.

[2] = Liver microsomes stability, human; settings: for Remaining Percentage (%) after 60 min, Human, With cofactors / Remaining Percentage (%) after 60 min, Human, Without cofactors: human liver microsomes; for half-life at 2 μM / microsomal CLint at 2 μM / metabolic stability in liver microsomes (statement): human; for half-life at 2 μM / microsomal CLint at 2 μM: pooled human liver microsomes; for metabolic stability in liver microsomes (statement): rat and mouse liver microsomes
Description: 40 μL of 10 mM NADPH solution was added to each well. The final concentration of NADPH was 1 mM. The negative control samples were prepared by replacing NADPH with 40 μL of ultra-pure H2O. Samples were prepared in duplicate. Negative controls were prepared in singlet.
This study was performed in duplicate.
LC/MS analysis was performed for all samples from this study using a Shimadzu liquid chromatograph separation system equipped with degasser DGU-20A5R; solvent delivery unit LC-30AD; system controller SIL-30AC; column oven CTO-30A; CTC Analytics HTC PAL System. Mass spectrometric analysis was performed using a Triple Quad™ 5500 instrument.
All calculations were carried out using Microsoft Excel.
All calculations were carried out using Microsoft Excel. Peak areas were determined from extracted ion chromatograms.

[3] = Caco-2, pH 7.4, Percentage recovery (%) A→B, Caco-2, A→B
[4] = Caco-2, pH 7.4, Percentage recovery (%) B→A, Caco-2, B→A
[5] = FLIPR agonist mode, HTR2A&Gα15-HEK293 cells, ND: not detected, read-out: h5-HT2A, EC50

human 5-HT2A receptor, sequence (P28223 whole entry): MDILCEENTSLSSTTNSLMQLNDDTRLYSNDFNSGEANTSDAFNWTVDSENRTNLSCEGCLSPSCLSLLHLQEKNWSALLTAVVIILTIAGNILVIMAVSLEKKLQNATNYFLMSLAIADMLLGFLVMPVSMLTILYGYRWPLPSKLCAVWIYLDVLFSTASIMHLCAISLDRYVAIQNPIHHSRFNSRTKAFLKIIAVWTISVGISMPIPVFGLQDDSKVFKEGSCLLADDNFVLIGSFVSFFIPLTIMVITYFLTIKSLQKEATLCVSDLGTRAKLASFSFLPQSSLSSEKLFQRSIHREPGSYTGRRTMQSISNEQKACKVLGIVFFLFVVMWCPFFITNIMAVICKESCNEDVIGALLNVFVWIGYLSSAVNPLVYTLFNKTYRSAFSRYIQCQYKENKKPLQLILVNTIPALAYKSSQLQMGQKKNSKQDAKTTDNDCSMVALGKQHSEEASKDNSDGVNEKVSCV

SMILES | Papp A→B at 2 h, 5 µM [1] [×10⁻⁶ cm/s] | Papp B→A at 2 h, 5 µM [1] [×10⁻⁶ cm/s] | efflux ratio at 2 h, 5 μM [1] | recovery at 2 h, 5 μM [1, 3] [%] | recovery at 2 h, 5 μM [1, 4] [%] | EC50 (human 5-HT2A receptor) [µM] | RFU@10 μM (human 5-HT2A receptor) [RFU] | Remaining Percentage (%) after 60 min, Human, With cofactors [2] [%] | Remaining Percentage (%) after 60 min, Human, Without cofactors [2] [%] | half-life at 2 μM [2] [min] | microsomal CLint at 2 μM [2] [µL/min/mg] | metabolic stability in liver microsomes (statement) [2] | EC50 (human 5-HT2A receptor; [5]) [µM] | t1/2 Human ([2]; human liver microsomes with NADPH, 2 μM) [min]
CN1CCC[C@@H]1Cc1c[nH]c2cccc(O)c12 [Compound 10, (R)-3-((1-methylpyrrolidin-2-yl)methyl)-1H-indol-4-ol] | 23.2 | 18.8 | 0.81 | 82.7 | 92 | 0.047 | 2929 |  |  |  |  |  |  | 
[2H]C([2H])(c1c[nH]c2cccc(O)c12)[C@H]1CCCN1C([2H])([2H])[2H] [Compound 13, (R)-3-((1-(methyl-d3)pyrrolidin-2-yl)methyl-d2)-1H-indol-4-ol] |  |  |  |  |  | 0.044 | 3108 |  |  |  |  |  |  | 
CN1CCC[C@@H]1Cc1c[nH]c2cccc(OC(=O)CCCC(=O)Oc3cccc4[nH]cc(C[C@H]5CCCN5C)c34)c12 [Compound I-13, Bis(3-(((R)-1-methylpyrrolidin-2-yl)methyl)-1H-indol-4-yl) glutarate] | 0.63 | 4.1 | 6.5 | 94.7 | 110 |  | 3887 | 0 | 0 | < 4.51 | > 307 | rapidly metabolized | 0.0323 | 
[2H]C([2H])(c1c[nH]c2cccc(OC(=O)CCCC(=O)Oc3cccc4[nH]cc(C([2H])([2H])[C@H]5CCCN5C([2H])([2H])[2H])c34)c12)[C@H]1CCCN1C([2H])([2H])[2H] [Compound I-22, bis(3-(((R)-1-(methyl-d3)pyrrolidin-2-yl)methyl-d2)-1H-indol-4-yl) glutarate] | < 0.25 | 1.01 | > 4.08 | < 126 | 101 |  | 5409 | 0 | 1.38 | 4.67 | 297 | rapidly metabolized | 0.0131 | 
CN(C)CCc1c[nH]c2cccc(O)c12 [Psilocin, 4-hydroxy-N,N-dimethyltryptamine, reference compound] | 24.6 | 18.7 |  | 100 | 102 |  | 308 | 70.16 |  |  |  |  |  | 117.32
